Results as given in patent US20250179024A1, “AMYLOID AND ASSOCIATED PATHOLOGY MODULATORS AND METHODS THEREOF” (Jawaharlal Nehru Centre for Advanced Scientific Research, priority 2022, published 2025).

Tests used:
[1] = target: T1, Aβ42 (Homo sapiens, UniProt P05067); assay: Native PAGE and western blot of Aβ aggregated species; type: biochemical; details: NMIs 20 μM; for size distribution of Aβ aggregated species, aggregation inhibition: Aβ 10 μM, FIGS. 1B and 2B; for LMW and HMW Aβ aggregates, dissolution samples: Aβ aggregates 10 μM, FIG. 4B
T1 construct: is a 42 amino acid proteolytic product from the amyloid precursor protein; purchased Invitrogen
Description: The samples were prepared by incubating Aβ42 with specific concentration of NMI compounds of present disclosure and metal ions for 48 h and then subjected to 6% native polyacrylamide gel electrophoresis (Native-PAGE) in tris-glycine buffer. The lower molecular weight aggregates permeabilized through the gel and resolved in the gel. Higher molecular aggregates stuck in the upper part of wells and potentially carried in gel. Then the protein was transferred to PVDF membrane for 4 h at cold condition maintained using ice cold transfer buffer and immersing the transfer apparatus in ice. Then the blots were continued similar to dot blots. […] It has been observed that the oligomers are a highly toxic species compared to Aβ fibrillar aggregates. The ability of NMIs (M3) to inhibit the formation of Aβ oligomers was assessed by dot blot assay. Aβ peptide (10 μM) was incubated with NMIs at 4° C. for 24 h followed by probing with A11 oligomer-specific antibody. […] Native PAGE and western blot analysis was carried out to understand the size distribution of Aβ aggregated species. […] In order to analyse the higher order aggregates not permeable in the gel matrix and the morphological characteristics, Aβ samples were subjected to atomic force microscopy (AFM) imaging.

[2] = Metal chelation by UV-visible absorbance and fluorescence spectra; type: physicochemical; details: for interaction with Cu (II) and Zn (II), change in absorbance spectra / chelation among different physiologically relevant metals, absorbance: NMIs 20 μM; for chelation among different physiologically relevant metals, absorbance: metals 40 μM
Description: The compounds of the present disclosure (NMIs) were designed to chelate with metals (Cu and Zn) and alleviate the metal-dependent Aβ toxicity. […] The change in absorbance and fluorescence spectra of NMIs were monitored to understand the interaction with Cu(II) and Zn(II). […] The fluorescence intensity of M3 at 525 nm decreased with the increasing concentration of Cu(II) or Zn(II) (FIGS. 6(A & B)).

[3] = target: T2, Aβ in the presence of Cu (II) (Homo sapiens, UniProt P05067); assay: Cu-dependent Aβ aggregation, native PAGE and western blot; type: biochemical; details: Aβ 10 μM, Cu (II) 20 μM, NMIs 20 μM, 37° C., 48 h
T2 construct: is a 42 amino acid proteolytic product from the amyloid precursor protein; purchased Invitrogen
Description: The samples were prepared by incubating Aβ42 with specific concentration of NMI compounds of present disclosure and metal ions for 48 h and then subjected to 6% native polyacrylamide gel electrophoresis (Native-PAGE) in tris-glycine buffer. The lower molecular weight aggregates permeabilized through the gel and resolved in the gel. Higher molecular aggregates stuck in the upper part of wells and potentially carried in gel. Then the protein was transferred to PVDF membrane for 4 h at cold condition maintained using ice cold transfer buffer and immersing the transfer apparatus in ice. Then the blots were continued similar to dot blots.
The absorbance and fluorescence spectroscopy studies together with mass spectrometry data confirmed the selective Cu (II) or Zn (II) chelation property of M1 and M3. […] Aβ (10 μM) was incubated in the presence of Cu (II) or Zn (II) (20 μM) with NMIs at 37° C. for 48 h and the samples were subjected to native PAGE and western blot analysis. […] Modulation of Zn-dependent Aβ aggregation by M4 was attributed to its two Zn (II) chelation centres. M3 with dopamine and DPA moieties effectively modulated both Cu (II) and Zn (II)-dependent Aβ aggregation. The effect of NMIs on the morphological outcome of metal-dependent Aβ aggregation was visualized by AFM imaging (FIGS. 1E and 1F). Aβ in the presence of Cu (II) and Zn (II) formed dense and thick fibrils.

[4] = test system: SH-SY5Y cells; assay: Neuronal cell rescue from Aβ toxicity (MTT); type: cell-based; details: Aβ 10 μM
Description: Cell rescue from Aβ toxicity by NMIs were assessed in SH-SY5Y cells. The cells were seeded into 96 well plate at cell density of 25,000 cells per well and after 24 h the media was replaced with DMEM-F12 with low serum (2.5% FBS). After 6 h, cells were treated with Aβ (10 μM) alone and with NMIs (20 μM) in low serum media. Different concentrations of compound (10, 20 and 50 μM) were used to treat cells. For metal dependent studies, Aβ (10 μM) with metals (20 μM) in the absence and presence of NMIs (20 μM) was treated. The cells were incubated for 30 h and MTT assay was performed to calculate the percentage cell viability.
Compounds of the present disclosure (M1 to M4) were evaluated for their ability to rescue neuronal cells from Aβ toxicity by MTT assay.
Further, the effect of concentration of compounds of the present disclosure on the cell rescue was assessed. […] The ability of NMIs to rescue cells from metal-dependent Aβ toxicity were assessed in the presence of Cu (II) and Zn (II). Cells were treated with Aβ (10 μM) along with metal ions (20 μM) and NMIs (20 μM) for 30 h. Aβ in the presence of Cu (II) reduced cell viability to ˜62% and M3 treatment had rescued cells with viability to 85% (FIG. 12C). Aβ with Zn (II) viability reduced to ˜61% and M3 treatment rescued cells by improving the viability to ˜79% (FIG. 12D). […] These in-cellulo experiments confirmed the ability of M3 to effectively rescue neuronal cells from metal-independent and dependent Aβ toxicity.

[5] = modulators 20 μM, Aβ alone ~52%, FIG. 12A

T1 sequence (P05067 672-713 limits assumed): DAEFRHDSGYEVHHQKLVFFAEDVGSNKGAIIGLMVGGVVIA
T2 sequence (P05067 672-713 limits assumed): as above

Row | Structure (SMILES) | size distribution of Aβ aggregated species, aggregation inhibition [1] | LMW and HMW Aβ aggregates, dissolution samples [1] | interaction with Cu (II) and Zn (II), change in absorbance spectra ([2]; Cu or Zn 2.5 to 40 μM) | chelation among different physiologically relevant metals, absorbance [2] | formation of Aβ aggregates in the presence of Cu (II) [3] | cell viability [4, 5] | fluorescence intensity at 525 nm with increasing concentration of Cu(II) or Zn(II) ([2]; 20 μM, Cu or Zn 2.5 to 40 μM) | cell viability ([4]; 50 μM compound, control 54%, FIG. 12B) | viability at 5 µM ([4]; Homo sapiens, SH-SY5Y, 5 μM compound, control 54%, FIG. 12B) [%] | viability at 10 µM ([4]; Homo sapiens, SH-SY5Y, 10 μM compound, control 54%, FIG. 12B) [%] | viability at 20 µM ([4]; Homo sapiens, SH-SY5Y, 20 μM compound, control 54%, FIG. 12B) [%]
1 | CN(C)c1ccc2c3c(cccc13)C(=O)N(CCc1ccc(O)c(O)c1)C2=O [M1, 2-(3,4-dihydroxyphenethyl)-6-(dimethylamino)-1H-benzo[de]isoquinoline-1,3(2H)-dione] | reduction of different Aβ species | effectively inhibited the formation of LMW and HMW Aβ aggregates | effectively interacted with Cu (II) and Zn (II) | selectively chelated with Cu(II) and Zn (II) | reduced the formation of aggregates | lowered alleviation of the Aβ toxicity |  |  |  |  | 
2 | O=C1c2cccc3c(N(Cc4ccccn4)Cc4ccccn4)ccc(c23)C(=O)N1CCc1ccc(O)c(O)c1 [M3, 6-(bis(pyridin-2-ylmethyl)amino)-2-(3,4-dihydroxyphenethyl)-1H-benzo[de]isoquinoline-1,3(2H)-dione] | reduction of different Aβ species | effectively inhibited the formation of LMW and HMW Aβ aggregates | effectively interacted with Cu (II) and Zn (II) | selectively chelated with Cu(II) and Zn (II) | reduced the formation of aggregates | ~75% | decreased | near-complete rescue | 68 | 70 | 83
